Measured values taken from US20220073536A1 (Rigel Pharmaceuticals, Inc., priority 2003, published 2022).
Where two headings read alike, the source gives them in different places.

Legend:
[1] = tested on: cultured human mast cells (CHMC); experiment: CHMC low cell density ionomycin activation: tryptase assay; format: cell-based; conditions: Homo sapiens, Mast cell, low cell density CHMC, read-out: LD Tryptase, CHMC, Iono, 3 pt
[2] = tested on: cultured human mast cells (CHMC); experiment: CHMC low cell density IgE activation: tryptase assay; format: cell-based; conditions: Homo sapiens, Mast cell, IgE activation
Procedure, shortened: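 Fluorogenic readout of tryptase released into the supernatant (30 min substrate incubation, room temperature) measures degranulation. Cells were plated at low density (1000–1500/well, varied by donor) and triggered with anti-IgE for 30 min at 37 °C.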

Syk kinase = molecular target: T1, Syk kinase (Homo sapiens, UniProt P43405); experiment: Syk kinase biochemical fluorescence polarization assay; conditions: read-out: fp_syk, 11 pt
T1 construct: purchased Upstate, Lake Placid N.Y
Description: Many of the 2,4-pyrimidinediamine compounds were tested for the ability to inhibit Syk kinase catalyzed phosphorylation of a peptide substrate in a biochemical fluorescenced polarization assay with isolated Syk kinase. In this experiment, Compounds were diluted to 1% DMSO in kinase buffer (20 mM HEPES, pH 7.4, 5 mM MgCl2, 2 mM MnCl2, 1 mM DTT, 0.1 mg/mL acetylated Bovine Gamma Globulin). Compound in 1% DMSO (0.2% DMSO final) was mixed with ATP/substrate solution at room temperature. Syk kinase (Upstate, Lake Placid N.Y.) was added to a final reaction volume of 20 uL, and the reaction was incubated for 30 minutes at room temperature. […] EDTA (10 mM final)/anti-phosphotyrosine antibody (1× final)/fluorescent phosphopeptide tracer (0.5× final) was added in FP Dilution Buffer to stop the reaction for a total volume of 40 uL according to manufacturer's instructions (PanVera Corporation) The plate was incubated for 30 minutes in the dark at room temperature. Plates were read on a Polarion fluorescence polarization plate reader (Tecan). Data were converted to amount of phosphopeptide present using a calibration curve generated by competition with the phosphopeptide competitor provided in the Tyrosine Kinase Assay Kit, Green (PanVera Corporation).

[3] = low cell density CHMC, tryptase, 3 pt, read-out: LD Tryptase, CHMC, IgE, 3 pt
[4] = low cell density CHMC, tryptase, 8 pt, read-out: LD Tryptase, CHMC, IgE, 8 pt
[5] = low cell density CHMC, tryptase release, 3 pt, read-out: LD Tryptase, CHMC, IgE, 3 pt
[6] = low cell density CHMC, tryptase release, 8 pt, read-out: LD Tryptase, CHMC, IgE, 8 pt

For `CNC(=O)CNC(=O)c1ccc(Nc2ncc(F)c(Nc3ccc4c(c3)C(N)CCO4)n2)cc1` (racemic) [Compound 1299, (R,S)-N4-[4-Amino-3,4-dihydro-2H-1-benzopyran-6-yl]-5-fluoro-N2-[4-[N-(N-methylamino)carbonylmethylene]aminocarbonylphenyl]-2,4-pyrimidinediamine], the IC50 ([1]; tryptase, 3 pt) was over 10 µM, the IC50 [2, 3] was under 10 µM and the IC50 [2, 4] was under 10 µM. The IC50 (Syk kinase; isolated Syk kinase, 11 pt) was under 10 µM.
`COc1cc(Nc2nc(Nc3cc(C)cc(C)c3)ncc2F)cc(OC)c1` [Compound 350] showed an IC50 ([1]; tryptase, 3 pt) of over 10 µM, an IC50 [2, 3] of under 10 µM and an IC50 [2, 4] of under 10 µM. The IC50 (Syk kinase; isolated Syk kinase, 11 pt) was under 10 µM.
For `COc1cc(OC)cc(N(C)c2nc(Nc3cc(C)cc(C)c3)ncc2F)c1` [Compound 399, N4-(3,5-Dimethoxyphenyl)-N2-(3,5-dimethylphenyl)-5-fluoro-N4-methyl-2,4-pyrimidinediamine], the IC50 ([1]; tryptase, 3 pt) was over 10 µM, the IC50 [2, 3] was under 10 µM and the IC50 [2, 4] was under 10 µM. For the same molecule, the IC50 (Syk kinase; isolated Syk kinase, 11 pt) was under 10 µM.
In the case of `COc1ccc(N(C)c2nc(Cl)ncc2F)cc1OC` [Compound 417], the IC50 ([1]; tryptase, 3 pt) is reported as over 10 µM, the IC50 [2, 3] is reported as over 10 µM and the IC50 [2, 4] is reported as over 10 µM. For the same molecule, the IC50 (Syk kinase; isolated Syk kinase, 11 pt) was over 10 µM.
Molecule `COc1ccc(Nc2nc(Nc3cccc(-c4ncco4)c3)ncc2F)cc1OC` [Compound 423, N4-(3,4-Dimethoxyphenyl)-5-fluoro-N2-[3-(oxazol-2-yl)phenyl]-2,4-pyrimidinediamine] has an IC50 ([1]; tryptase, 3 pt) of over 10 µM, an IC50 [2, 3] of under 10 µM and an IC50 [2, 4] of under 10 µM. For the same molecule, the IC50 (Syk kinase; isolated Syk kinase, 11 pt) was under 10 µM.
For `COc1ccc(N(C)c2nc(Nc3cccc(-c4ncco4)c3)ncc2F)cc1OC` [Compound 439, N4-(3,4-Dimethoxyphenyl)-5-fluoro-N4-methyl-N2-[3-(oxazol-2-yl)phenyl]-2,4-pyrimidinediamine], the IC50 ([1]; tryptase, 3 pt) was over 10 µM, the IC50 [2, 3] was under 10 µM and the IC50 [2, 4] was under 10 µM. It also gave an IC50 (Syk kinase; isolated Syk kinase, 11 pt) of over 10 µM.
With `CNC(=O)COc1ccc(Nc2nc(Nc3ccc4ccn(CC(=O)NC)c4c3)ncc2F)cc1Cl` [Compound 648, N4-[3-Chloro-4-(N-methylamino)carbonylmethyleneoxyphenyl]-5-fluoro-N2-[1-(N-methylamino)carbonylmethyleneindol-6-yl]-2,4-pyrimidinediamine] the IC50 ([1]; tryptase release, 3 point) was over 10 µM, the IC50 ([2]; low cell density CHMC, tryptase release, 3 point, read-out: LD Tryptase, CHMC, IgE, 3 pt) was under 10 µM and the IC50 ([2]; low cell density CHMC, tryptase release, 8 point, read-out: LD Tryptase, CHMC, IgE, 8 pt) was under 10 µM. It also gave an IC50 (Syk kinase; isolated Syk kinase, 11 point) of under 10 µM.
With `COCCCn1ncc2cc(Nc3ncc(F)c(Nc4ccc(OC)c(Cl)c4)n3)ccc21` [Compound 792, N4-(3-Chloro-4-methoxyphenyl)-5-fluoro-N2-[1-(3-methoxypropyl)indazol-5-yl]-2,4-pyrimidinediamine] the IC50 ([1]; tryptase release, 3 pt) was over 10 µM, the IC50 [2, 5] was under 10 µM and the IC50 [2, 6] was under 10 µM. For the same molecule, the IC50 (Syk kinase; isolated Syk kinase, 11 pt) was under 10 µM.
Work on `COc1ccc(Nc2nc(Nc3ccc4[nH]c(C(F)(F)F)nc4c3)ncc2F)cc1Cl` [Compound 800, N4-(3-Chloro-4-methoxyphenyl)-5-fluoro-N2-(2-trifluoromethyl-1H-benzimidazol-5-yl)-2,4-pyrimidinediamine] yielded an IC50 ([1]; tryptase release, 3 pt) of under 10 µM, an IC50 [2, 5] of under 10 µM and an IC50 [2, 6] of under 10 µM. It also gave an IC50 (Syk kinase; isolated Syk kinase, 11 pt) of under 10 µM.
`Fc1cnc(Nc2ccc3[nH]c(C(F)(F)F)nc3c2)nc1Nc1ccc(Cl)c(Cl)c1` [Compound 801, N4-(3,4-Dichlorophenyl)-5-fluoro-N2-(2-trifluoromethyl-1H-benzimidazol-5-yl)-2,4-pyrimidinediamine] gave an IC50 ([1]; tryptase release, 3 pt) of under 10 µM, an IC50 [2, 5] of under 10 µM and an IC50 [2, 6] of under 10 µM. The IC50 (Syk kinase; isolated Syk kinase, 11 pt) was under 10 µM.
In the case of `COc1ccc(Nc2nc(Nc3ccc4nc(C)[nH]c4c3)ncc2F)cc1Cl` [Compound 808, N4-(3-Chloro-4-methoxyphenyl)-5-fluoro-N2-(2-methyl-3H-benzimidazol-5-yl)-2,4-pyrimidinediamine], the IC50 ([1]; tryptase release, 3 pt) is reported as over 10 µM, the IC50 [2, 5] is reported as under 10 µM and the IC50 [2, 6] is reported as under 10 µM. For the same molecule, the IC50 (Syk kinase; isolated Syk kinase, 11 pt) was under 10 µM.
Work on `Cc1nc2ccc(Nc3ncc(F)c(Nc4ccc(Cl)c(Cl)c4)n3)cc2[nH]1` [Compound 809, N4-(3,4-Dichlorophenyl)-5-fluoro-N2-(2-methyl-3H-benzimidazol-5-yl)-2,4-pyrimidinediamine] yielded an IC50 ([1]; tryptase release, 3 pt) of over 10 µM, an IC50 [2, 5] of under 10 µM and an IC50 [2, 6] of under 10 µM. The IC50 (Syk kinase; isolated Syk kinase, 11 pt) was under 10 µM.
With `Fc1cnc(Nc2ccc3[nH]c(N4CCOCC4)nc3c2)nc1Nc1ccc(Cl)c(Cl)c1` [Compound 975, N4-(3,4-Dichlorophenyl)-5-fluoro-N2-[2-(4-morpholino)-1H-benzimidazol-5-yl]-2,4-pyrimidinediamine] the IC50 ([2]; low cell density, 8 pt, read-out: LD Tryptase, CHMC, IgE, 8 pt) was under 10 µM and the IC50 (Syk kinase; 11 pt) was under 10 µM.
Molecule `COc1c(C)cc(Nc2ncc(F)c(Nc3cccc(NC4=NCCN4)c3)n2)cc1C` [Compound 1093] has an IC50 ([1]; tryptase readout, 3 pt) of over 10 µM, an IC50 ([2]; low cell density CHMC, tryptase readout, 3 pt, read-out: LD Tryptase, CHMC, IgE, 3 pt) of under 10 µM and an IC50 ([2]; low cell density CHMC, tryptase readout, 8 pt, read-out: LD Tryptase, CHMC, IgE, 8 pt) of under 10 µM. It also gave an IC50 (Syk kinase; isolated Syk kinase, 11 pt) of under 10 µM.
With `Fc1cnc(Nc2cccc(-c3ncco3)c2)nc1Nc1cc(C2CC2)n[nH]1` [Compound 1144, N4-(3-Cyclopropyl-1H-pyrazol-5-yl)-5-fluoro-N2-[3-(oxazol-2-yl)phenyl]-2,4-pyrimidinediamine] the IC50 ([1]; tryptase, 3 pt) was over 10 µM, the IC50 [2, 3] was under 10 µM and the IC50 [2, 4] was under 10 µM. The IC50 (Syk kinase; isolated Syk kinase, 11 pt) was under 10 µM.
In the case of `CN1CCN(c2ccc(Nc3ncc(F)c(N(C)C4CCC4)n3)cc2)CC1` [Compound 1147, N4-Cyclobutyl-5-fluoro-N4-methyl-N2-[4-(4-methylpiperazino)phenyl]-2,4-pyrimidinediamine], the IC50 ([1]; tryptase, 3 pt) is reported as over 10 µM, the IC50 [2, 3] is reported as under 10 µM and the IC50 [2, 4] is reported as under 10 µM. The IC50 (Syk kinase; isolated Syk kinase, 11 pt) was under 10 µM.
With `CN1CCN(c2ccc(Nc3ncc(F)c(NC4CCCCC4)n3)cc2Cl)CC1` [Compound 1191, N2-[3-Chloro-4-(4-methylpiperazino)phenyl]-N4-cyclohexyl-5-fluoro-2,4-pyrimidinediamine] the IC50 [2, 3] was under 10 µM and the IC50 (Syk kinase; isolated Syk kinase, 11 pt) was under 10 µM.
`Nc1nc(Nc2nc(Nc3ccc4cn[nH]c4c3)ncc2F)n[nH]1` [Compound 1255] showed an IC50 [2, 4] of under 10 µM and an IC50 (Syk kinase; isolated Syk kinase, 11 pt) of under 10 µM.
Work on `CCN(CC)CCNC(=O)c1ccc(Nc2ncc(F)c(Nc3ccc(OC)c(Cl)c3)n2)cc1` [Compound 1320, N4-(3-Chloro-4-methoxyphenyl)-5-fluoro-N2-(4-[2-[N,N-diethylamino]ethyleneaminocarbonyl]phenyl)-2,4-pyrimidinediamine] yielded an IC50 [2, 4] of under 10 µM and an IC50 (Syk kinase; isolated Syk kinase, 11 pt) of under 10 µM.
In the case of `COc1ccc(Nc2nc(Nc3ccc(C(N)=O)cc3)ncc2F)cc1Cl` [Compound 1321, N2-(4-Aminocarbonylphenyl)-N4-(3-chloro-4-methoxyphenyl)-5-fluoro-2,4-pyrimidinediamine], the IC50 [2, 4] is reported as under 10 µM and the IC50 (Syk kinase; isolated Syk kinase, 11 pt) is reported as under 10 µM.
In the case of `CC1(C)Oc2ccc(Nc3ncc(F)c(Nc4ccc(C(N)=O)cc4)n3)cc2NC1=O` [Compound 1337], the IC50 [2, 3] is reported as under 10 µM, the IC50 [2, 4] is reported as under 10 µM and the IC50 (Syk kinase; isolated Syk kinase, 11 pt) is reported as under 10 µM.
`Cc1noc(COc2ccc(Nc3nc(Nc4ccc(C(N)=O)cc4)ncc3F)cc2)n1` [Compound 1341, N2-(4-Aminocarbonylphenyl)-5-fluoro-N4-(4-[3-methyl-1,2,4-oxadiazol-5-yl]methyleneoxyphenyl)-2,4-pyrimidinediamine] showed an IC50 [2, 3] of under 10 µM, an IC50 [2, 4] of under 10 µM and an IC50 (Syk kinase; isolated Syk kinase, 11 pt) of under 10 µM.
`CCN(CC)CCNC(=O)c1ccc(Nc2ncc(F)c(Nc3ccc(OCc4nc(C)no4)cc3)n2)cc1` [Compound 1343, N2-(4-[2-[N,N-Diethylamino]ethyleneaminocarbonyl]phenyl)-5-fluoro-N4-(4-[3-methyl-1,2,4-oxadiazol-5-yl]methyleneoxyphenyl)-2,4-pyrimidinediamine] gave an IC50 [2, 3] of under 10 µM, an IC50 [2, 4] of under 10 µM and an IC50 (Syk kinase; isolated Syk kinase, 11 pt) of under 10 µM.
`Cc1noc(COc2ccc(Nc3nc(Nc4cc(Cl)c(O)c(Cl)c4)ncc3F)cc2)n1` [Compound 1344, N2-(3,5-Dichloro-4-hydroxyphenyl)-5-fluoro-N4-(4-[3-methyl-1,2,4-oxadiazol-5-yl]methyleneoxyphenyl)-2,4-pyrimidinediamine] was tested, and the IC50 [2, 3] was under 10 µM, the IC50 [2, 4] was over 10 µM and the IC50 (Syk kinase; isolated Syk kinase, 11 pt) was under 10 µM.
`COc1cc(Cl)cc(Nc2ncc(F)c(Nc3ccc(OCc4nc(C)no4)cc3)n2)c1` [Compound 1345, N2-(3-Chloro-5-methoxyphenyl)-5-fluoro-N4-(4-[3-methyl-1,2,4-oxadiazol-5-yl]methyleneoxyphenyl)-2,4-pyrimidinediamine] gave an IC50 [2, 3] of over 10 µM and an IC50 (Syk kinase; isolated Syk kinase, 11 pt) of under 10 µM.
